Laboratory results: patent US10577315B2, “Compositions and methods for treatment of prostate carcinoma” (Pellficure Pharmaceuticals, Inc., priority 2014, dated 2020)

Key:
Format in all cases: cell-based
[1] = tested on: human fibrosarcoma HT1080 cells; experiment: Dose response of 1,4-naphthoquinone analogs in human fibrosarcoma cells HT1080 (WST-1, 24 h)
Procedure: (§1) 100 microliters of human fibrosarcoma HT1080 cells were plated at a density of 8000 cells/well in 96-well plates (triplicates) in growing medium containing 10% Fetal Bovine Serum, penicillin/streptomycin, and glutamine. The next day, increasing concentrations of a 1,4-naphthoquinone analog (diluted from 10 mM DMSO stock solutions) were added. DMSO used as solvent for all analogs, was kept constant through the 96-well plates. The control consisted of DMSO alone. The cells were subsequently incubated for 24 hours at 37° C. and 5% CO2 in normal cell growth conditions. Cell viability was assessed by adding 9 μL/well of WST-1 reagent (Clontech), which measured mitochondrial activity of live cells. […] The incubation time was 3 hours at 37° C. Optical density of the cell samples was measured at 460 nm, by using plate reader Spectra Max 250 (Molecular Devices). The drug was determined to be cytotoxic when OD values show an inverse correlation with analog concentrations.

[2] = tested on: PTEN-P2/GFP prostate cancer cells; experiment: Effect of 1,4-naphthoquinone analogs on PTEN-P2/GFP cell proliferation (WST-1 cell viability, 24 h); settings: Mus musculus, WST-1, medium with 10% FBS and DHT, read-out: PTEN-P2/GFP cell proliferation, percent of control
Summary of the method: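 PTEN-P2/GFP cells, 8000/well, in medium with 10% FBS and 10^−8M DHT, dosed next day with increasing analog concentrations (constant DMSO) for 24 h at 37 °C, 5% CO2. Viability read by WST-1 after 3 h at 37 °C, OD at 460 nm.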

[3] = tested on: human breast cancer SKBR-3 cells; experiment: Dose response of 1,4-naphthoquinone analogs in human breast cancer cells SKBR-3 (WST-1, 24 h)
Procedure: as §1, with “breast cancer SKBR-3” for “fibrosarcoma HT1080”

| SMILES | proliferation of human fibrosarcoma HT1080 cells, percent of control ([1]; 1.2 μM) | proliferation of human fibrosarcoma HT1080 cells, percent of control ([1]; 2.5 μM) | proliferation of human fibrosarcoma HT1080 cells, percent of control ([1]; 5 μM) | proliferation of human fibrosarcoma HT1080 cells, percent of control ([1]; 7.5 μM) | proliferation of human fibrosarcoma HT1080 cells, percent of control ([1]; 10 μM) | proliferation of human fibrosarcoma HT1080 cells, percent of control ([1]; 15 μM) | proliferation of human fibrosarcoma HT1080 cells, percent of control ([1]; 20 μM) | activity at 5 µM [2] | activity at 10 µM [2] | activity at 15 µM [2] | human SKBR-3 cell proliferation, percent of control ([3]; 1.2 μM) | human SKBR-3 cell proliferation, percent of control ([3]; 2.5 μM) | human SKBR-3 cell proliferation, percent of control ([3]; 5 μM) | human SKBR-3 cell proliferation, percent of control ([3]; 7.5 μM) | human SKBR-3 cell proliferation, percent of control ([3]; 10 μM) | human SKBR-3 cell proliferation, percent of control ([3]; 15 μM) | human SKBR-3 cell proliferation, percent of control ([3]; 20 μM) | activity at 2 µM [2] | activity at 3 µM [2] | activity at 4 µM [2] | other results |
| --- | --- | --- | --- | --- | --- | --- | --- | --- | --- | --- | --- | --- | --- | --- | --- | --- | --- | --- | --- | --- | --- |
| O=C1C=C(Oc2ccc(OCc3ccccc3)cc2)C(=O)c2ccccc21 [Analog F06, 2-(4-(benzyloxy)phenoxy)-1,4-naphthoquinone] | 82.93% of control | 81.12% of control | 80.24% of control | 81.24% of control | 50.19% of control | 49.19% of control | 46.81% of control | 105% | 108% | 99.2% | 152.32% of control | 147.42% of control | 134.16% of control | 151.41% of control | 136.66% of control | 125.96% of control | 21.95% of control |  |  |  | activity at 1.2 µM ([2]; 1.2 μM): 99.8%; activity at 2.5 µM ([2]; 2.5 μM): 99.8%; activity at 7.5 µM ([2]; 7.5 μM): 106%; activity at 20 µM ([2]; 20 μM): 79.9% |
| CC(=O)Nc1ccc(OC2=CC(=O)c3ccccc3C2=O)cc1 [Analog F03, 2-(4-acetamidophenoxy)-1,4-naphthoquinone] | 81.33% of control | 85.67% of control | 74.59% of control | 72.11% of control | 75.09% of control | 55.37% of control | 38.21% of control | 97.1% | 43% | 20% | 88.89% of control | 87.44% of control | 64.41% of control | 36.88% of control | 7.32% of control | 1.24% of control | 1.57% of control | 97.8% | 97.1% | 97.1% | activity at 6 µM [2]: 85%; activity at 7 µM [2]: 76.2%; activity at 25 µM [2]: 9.61% |
| O=C1C=C(Oc2ccccc2)C(=O)c2ccccc21 [Analog F01, 2-phenoxy-1,4-naphthoquinone] | 85.21% of control | 81.88% of control | 66.22% of control | 73.66% of control | 69.05% of control | 41.07% of control | 18.29% of control | 43.1% | 13.2% | 9.77% | 99.47% of control | 105.05% of control | 85.33% of control | 61.15% of control | 4.30% of control | 1.90% of control | 2.19% of control | 91.7% | 77.9% | 63.4% | activity at 6 µM [2]: 30.9%; activity at 7 µM [2]: 24.1%; activity at 25 µM [2]: 9.86% |
| O=C1C=C(Oc2c(F)c(F)c(F)c(F)c2F)C(=O)c2ccccc21 [Analog F02, 2-(2,3,4,5,6-pentafluorophenoxy)-1,4-naphthoquinone] | 84.28% of control | 82.46% of control | 82.96% of control | 76.72% of control | 74.71% of control | 65.17% of control | 63.04% of control | 90.3% | 47.6% | 28.7% | 107.66% of control | 116.47% of control | 107.37% of control | 94.47% of control | 75.45% of control | 35.60% of control | 3.02% of control | 97.9% | 94.8% | 93.3% | activity at 6 µM [2]: 82.6%; activity at 7 µM [2]: 74.3%; activity at 25 µM [2]: 12.3% |
